“And” between values parts separate entries of the source, which are not always exact repeats. Equal entries are not always repeated.
What was measured:
[1] = target: ABL1 (Homo sapiens (Human), UniProt P00519); assay: Caliper Mobility Shift kinase inhibition test; format: biochemical; conditions: 100 nM; for inhibition at 0.1 µM: read-out: inhibitory rate on ABL1
Procedure: (§1) The method adopted in the test was Caliper Mobility Shift Assay, which was a detection platform based on the mobility detection technology of microfluidic chip technology. […] Collected data was tested on Caliper to yield that inhibition ratio to kinase activity=(max−conversion)/(max−min)×100. “max” was DMSO control without adding compound, and “min” was low control. When IC50 was determined, each sample was provided with 10 dilutions, each with 2 multiple holes, and repeated for 3 times.

[2] = target: FGFR2 (Homo sapiens (Human), UniProt P21802); assay: Caliper Mobility Shift kinase inhibition test; format: biochemical
Chain of FGFR2 (P21802 22-821, species assumed): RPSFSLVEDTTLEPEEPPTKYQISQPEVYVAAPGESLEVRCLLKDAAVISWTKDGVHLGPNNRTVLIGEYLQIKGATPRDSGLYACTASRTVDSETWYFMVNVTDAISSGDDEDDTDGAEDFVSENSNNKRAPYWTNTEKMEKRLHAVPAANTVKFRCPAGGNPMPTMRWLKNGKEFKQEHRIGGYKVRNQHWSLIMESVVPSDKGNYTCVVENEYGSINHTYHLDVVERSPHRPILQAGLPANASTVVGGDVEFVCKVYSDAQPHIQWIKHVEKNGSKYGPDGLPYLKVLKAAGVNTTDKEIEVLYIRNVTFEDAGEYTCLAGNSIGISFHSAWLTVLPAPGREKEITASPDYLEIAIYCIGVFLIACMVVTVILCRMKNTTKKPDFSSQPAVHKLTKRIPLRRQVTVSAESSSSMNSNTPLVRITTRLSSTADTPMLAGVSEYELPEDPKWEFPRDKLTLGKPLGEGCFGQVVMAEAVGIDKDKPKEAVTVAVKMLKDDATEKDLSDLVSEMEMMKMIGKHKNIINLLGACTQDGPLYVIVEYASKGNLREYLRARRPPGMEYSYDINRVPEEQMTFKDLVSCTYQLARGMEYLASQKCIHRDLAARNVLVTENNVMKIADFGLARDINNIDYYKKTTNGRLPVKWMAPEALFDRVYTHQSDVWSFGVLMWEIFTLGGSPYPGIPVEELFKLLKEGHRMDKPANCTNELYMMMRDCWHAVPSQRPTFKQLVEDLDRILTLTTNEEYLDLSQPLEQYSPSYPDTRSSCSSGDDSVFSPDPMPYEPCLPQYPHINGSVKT
Procedure: (§2) The method adopted in the test was Caliper Mobility Shift Assay, which was a detection platform based on the mobility detection technology of microfluidic chip technology. Test steps: 1.25× kinase reaction buffer (62.5 mmol/L HEPES, pH 7.5; 0.001875% Brij-35; 12.5 mmol/L MgCl2; 2.5 mM DTT) and kinase reaction stop solution (100 mmol/L HEPES, pH 7.5; 0.015% Brij-35; 0.2% Coating Reagent #3) were configured. […] Collected data was tested on Caliper to yield that inhibition ratio to kinase activity=(max−conversion)/(max−min)×100. “max” was DMSO control without adding compound, and “min” was low control. When IC50 was determined, each sample was provided with 10 dilutions, each with 2 multiple holes, and repeated for 3 times.
(§3) According to the above-mentioned method for measuring kinase inhibitory activity, the inhibitory activity of the active compounds on other multiple kinases was measured to characterize the kinase selectivity of active inhibitors.

[3] = target: JAK1 (Homo sapiens (Human), UniProt P23458); assay: Caliper Mobility Shift kinase inhibition test; format: biochemical
Chain of JAK1 (P23458 whole entry, species assumed): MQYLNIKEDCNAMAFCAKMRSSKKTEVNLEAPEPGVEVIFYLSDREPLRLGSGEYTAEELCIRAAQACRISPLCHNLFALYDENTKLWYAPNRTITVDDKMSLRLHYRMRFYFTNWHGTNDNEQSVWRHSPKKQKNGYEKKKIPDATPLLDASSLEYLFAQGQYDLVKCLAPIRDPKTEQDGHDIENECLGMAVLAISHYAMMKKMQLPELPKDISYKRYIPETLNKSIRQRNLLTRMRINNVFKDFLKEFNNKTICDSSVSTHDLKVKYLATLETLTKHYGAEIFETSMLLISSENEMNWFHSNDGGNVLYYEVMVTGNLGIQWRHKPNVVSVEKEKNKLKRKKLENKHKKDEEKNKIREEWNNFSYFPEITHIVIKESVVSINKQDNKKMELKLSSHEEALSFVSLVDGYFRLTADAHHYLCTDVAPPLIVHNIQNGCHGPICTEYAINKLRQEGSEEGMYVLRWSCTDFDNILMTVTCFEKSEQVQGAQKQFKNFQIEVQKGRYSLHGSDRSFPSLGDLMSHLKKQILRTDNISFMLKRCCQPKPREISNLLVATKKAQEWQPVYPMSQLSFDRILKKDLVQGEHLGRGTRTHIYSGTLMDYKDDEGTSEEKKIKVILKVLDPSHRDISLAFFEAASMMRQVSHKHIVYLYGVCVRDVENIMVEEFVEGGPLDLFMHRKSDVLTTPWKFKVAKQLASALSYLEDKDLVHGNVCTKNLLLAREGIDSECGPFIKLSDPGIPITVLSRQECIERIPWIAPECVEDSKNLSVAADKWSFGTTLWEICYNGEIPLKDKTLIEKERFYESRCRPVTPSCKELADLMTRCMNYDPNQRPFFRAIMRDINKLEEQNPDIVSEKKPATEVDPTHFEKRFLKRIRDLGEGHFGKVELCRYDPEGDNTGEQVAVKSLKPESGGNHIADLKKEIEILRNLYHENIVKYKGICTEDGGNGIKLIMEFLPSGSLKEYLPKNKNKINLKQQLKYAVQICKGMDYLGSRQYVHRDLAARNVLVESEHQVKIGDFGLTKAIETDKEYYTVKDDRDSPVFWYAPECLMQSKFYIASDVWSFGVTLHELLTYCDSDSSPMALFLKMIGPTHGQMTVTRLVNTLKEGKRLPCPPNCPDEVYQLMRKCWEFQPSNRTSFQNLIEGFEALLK
Procedure: as §2, §3

[4] = target: PDGFRβ (Homo sapiens (Human), UniProt P09619); assay: Caliper Mobility Shift kinase inhibition test; format: biochemical; conditions: for inhibitory rate on PDGFR-β / inhibition at 0.1 µM: 100 nM; for IC50: read-out: IC50 PDGFR-β; for inhibition at 0.1 µM: read-out: inhibitory rate on PDGFR-β
Chain of PDGFRβ (P09619 33-1106): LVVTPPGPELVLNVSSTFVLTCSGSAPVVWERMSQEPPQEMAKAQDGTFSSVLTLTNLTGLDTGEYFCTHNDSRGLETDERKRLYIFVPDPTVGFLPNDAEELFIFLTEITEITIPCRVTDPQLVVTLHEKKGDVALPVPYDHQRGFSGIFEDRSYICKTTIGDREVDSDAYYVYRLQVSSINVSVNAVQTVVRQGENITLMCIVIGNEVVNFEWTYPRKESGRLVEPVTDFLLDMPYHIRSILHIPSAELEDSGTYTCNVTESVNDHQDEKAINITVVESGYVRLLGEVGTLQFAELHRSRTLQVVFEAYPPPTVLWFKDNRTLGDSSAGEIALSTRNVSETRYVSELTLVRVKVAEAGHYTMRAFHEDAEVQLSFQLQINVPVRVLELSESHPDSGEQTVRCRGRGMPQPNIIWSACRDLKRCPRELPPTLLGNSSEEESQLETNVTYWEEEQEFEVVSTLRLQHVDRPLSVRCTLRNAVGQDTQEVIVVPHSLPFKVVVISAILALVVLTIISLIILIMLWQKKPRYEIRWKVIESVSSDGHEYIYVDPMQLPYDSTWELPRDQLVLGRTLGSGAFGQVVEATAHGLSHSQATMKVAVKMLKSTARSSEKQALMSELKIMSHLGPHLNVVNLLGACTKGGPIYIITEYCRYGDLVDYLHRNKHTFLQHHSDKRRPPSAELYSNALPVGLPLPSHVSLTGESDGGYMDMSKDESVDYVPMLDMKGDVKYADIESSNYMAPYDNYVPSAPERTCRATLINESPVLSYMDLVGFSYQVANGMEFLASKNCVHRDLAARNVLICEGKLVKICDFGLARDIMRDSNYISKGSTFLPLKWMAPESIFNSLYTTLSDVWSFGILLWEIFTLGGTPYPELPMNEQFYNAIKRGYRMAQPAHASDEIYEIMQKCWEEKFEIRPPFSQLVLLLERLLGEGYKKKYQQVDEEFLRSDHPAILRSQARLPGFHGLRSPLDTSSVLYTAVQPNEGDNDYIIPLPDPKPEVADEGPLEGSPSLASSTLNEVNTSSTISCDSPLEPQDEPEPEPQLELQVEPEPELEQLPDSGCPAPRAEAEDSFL
Procedure: as §2, §3

[5] = target: ALK (Homo sapiens (Human), UniProt Q9UM73); assay: Caliper Mobility Shift kinase inhibition test; format: biochemical
Chain of ALK (Q9UM73 19-1620, species assumed): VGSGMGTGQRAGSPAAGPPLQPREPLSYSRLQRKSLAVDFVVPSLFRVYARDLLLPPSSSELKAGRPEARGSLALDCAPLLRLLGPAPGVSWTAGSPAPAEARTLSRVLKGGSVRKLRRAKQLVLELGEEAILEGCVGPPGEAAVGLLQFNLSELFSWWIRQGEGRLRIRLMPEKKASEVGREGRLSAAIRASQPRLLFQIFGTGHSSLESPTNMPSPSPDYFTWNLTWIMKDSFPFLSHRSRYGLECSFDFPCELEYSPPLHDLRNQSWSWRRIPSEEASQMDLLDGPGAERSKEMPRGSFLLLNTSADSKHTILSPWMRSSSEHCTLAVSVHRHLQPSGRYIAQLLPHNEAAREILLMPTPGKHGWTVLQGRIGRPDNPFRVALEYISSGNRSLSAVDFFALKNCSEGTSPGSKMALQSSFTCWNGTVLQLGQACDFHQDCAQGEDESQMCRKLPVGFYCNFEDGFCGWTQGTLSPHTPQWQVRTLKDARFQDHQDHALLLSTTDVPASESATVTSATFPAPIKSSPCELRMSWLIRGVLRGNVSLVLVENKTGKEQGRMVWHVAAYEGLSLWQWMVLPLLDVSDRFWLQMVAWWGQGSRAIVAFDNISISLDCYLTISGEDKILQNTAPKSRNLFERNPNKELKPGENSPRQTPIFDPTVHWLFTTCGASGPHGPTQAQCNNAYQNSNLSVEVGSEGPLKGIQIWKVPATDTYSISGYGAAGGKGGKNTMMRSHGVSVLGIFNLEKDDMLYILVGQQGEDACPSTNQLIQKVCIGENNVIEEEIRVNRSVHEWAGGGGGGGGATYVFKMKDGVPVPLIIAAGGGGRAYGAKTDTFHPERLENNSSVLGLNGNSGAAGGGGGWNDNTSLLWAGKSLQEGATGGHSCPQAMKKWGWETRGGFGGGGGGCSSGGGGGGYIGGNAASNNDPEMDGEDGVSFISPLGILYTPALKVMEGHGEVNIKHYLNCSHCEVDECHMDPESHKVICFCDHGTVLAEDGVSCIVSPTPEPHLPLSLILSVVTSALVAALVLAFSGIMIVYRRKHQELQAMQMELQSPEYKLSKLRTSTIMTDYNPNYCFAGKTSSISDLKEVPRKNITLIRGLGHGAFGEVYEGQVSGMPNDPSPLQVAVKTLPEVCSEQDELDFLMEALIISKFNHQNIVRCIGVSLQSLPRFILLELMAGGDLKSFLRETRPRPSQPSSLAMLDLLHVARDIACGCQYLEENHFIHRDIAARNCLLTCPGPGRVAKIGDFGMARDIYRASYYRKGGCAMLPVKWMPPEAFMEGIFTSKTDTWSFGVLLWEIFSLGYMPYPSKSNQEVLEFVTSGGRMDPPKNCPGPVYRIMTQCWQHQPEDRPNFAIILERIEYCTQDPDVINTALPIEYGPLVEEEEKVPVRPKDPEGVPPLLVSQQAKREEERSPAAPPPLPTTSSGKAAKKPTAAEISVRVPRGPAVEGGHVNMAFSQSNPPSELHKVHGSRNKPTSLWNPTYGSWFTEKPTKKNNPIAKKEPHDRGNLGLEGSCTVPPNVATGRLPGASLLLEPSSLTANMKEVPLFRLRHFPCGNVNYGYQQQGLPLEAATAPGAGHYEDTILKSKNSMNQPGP
Procedure: as §2

[6] = target: FLT3 (Homo sapiens (Human), UniProt P36888); assay: Caliper Mobility Shift kinase inhibition test; format: biochemical; conditions: 100 nM; for inhibition at 0.1 µM: read-out: inhibitory rate on FLT3
Procedure: as §2

[7] = target: IKK β (Homo sapiens (Human), UniProt O14920); assay: Caliper Mobility Shift kinase inhibition test; format: biochemical
Procedure: as §2

[8] = tested on: MG-63 osteosarcoma cells; assay: MTT assay on osteosarcoma cells; format: cell-based; conditions: Homo sapiens, 48 hours, read-out: Inhibitory activity (IC50) MG-63
Procedure: (§4) Logarithmic osteosarcoma cells were inoculated into a 96-well plate with a cell concentration of 1,500 cell/well for 6 hours by using MTT assay, and each well was filled with 200 μL of cell suspension. […] The samples were cultured in an incubator for 48 hours (37° C., 5% CO2), and 20 v L of MTT (3-(4,5-dimethylthiazole-2)-2,5-diphenyltetrazole) were added into each hole. After continuous culture for 4 hours, the culture solution was discarded by suction, and 200 v L of DMSO were added to each well. […] Calculation method of IC50 value: the IC50 values of the samples were calculated by curve fitting with GraphPad Prism software.

[9] = tested on: MNNG/HOS osteosarcoma cells; assay: MTT assay on osteosarcoma cells; format: cell-based; conditions: 48 hours, read-out: Inhibitory activity (IC50) MNNG/HOS
Procedure: as §4

[10] = tested on: SAOS-2 osteosarcoma cells; assay: MTT assay on osteosarcoma cells; format: cell-based; conditions: Homo sapiens, 48 hours, read-out: Inhibitory activity (IC50) SAOS-2
Procedure: as §4

[11] = tested on: U2OS osteosarcoma cells; assay: MTT assay on osteosarcoma cells; format: cell-based; conditions: Homo sapiens, 48 hours, read-out: Inhibitory activity (IC50) U2OS
Procedure: as §4

[12] = target: PDGFRα (Homo sapiens (Human), UniProt P16234); assay: Caliper Mobility Shift kinase inhibition test; format: biochemical; conditions: read-out: inhibitory rate on PDGFR-α, 100 nM
Procedure: as §1

[13] = tested on: human normal retinal cells ARPE-19; assay: MTT assay on human retinal cells; format: cell-based; conditions: Homo sapiens, ARPE-19; MTT; read-out: Inhibitory activity (IC50) ARPE-19
[14] = tested on: human brain microvascular endothelial cells (HCMEC/D3); assay: MTT assay on human neovascular cells; format: cell-based; conditions: Homo sapiens, hCMEC/D3; MTT; read-out: Inhibitory activity (IC50) HCMEC-D3
[15] = tested on: human cerebrovascular pericytes (HBVP); assay: MTT assay on human neovascular cells; format: cell-based; conditions: Homo sapiens; MTT; read-out: Inhibitory activity (IC50) HBVP

Structure (SMILES) | inhibitory rate on ABL1 [1] [%] | IC50 [2] [nM] | IC50 [3] [nM] | inhibitory rate on PDGFR-β [4] [%] | IC50 [4] | IC50 [5] [nM] | inhibitory rate on FLT3 [6] [%] | IC50 [7] [nM] | inhibition at 0.1 µM [1] [%] | inhibition at 0.1 µM [4] [%] | inhibition at 0.1 µM [6] [%] | inhibitory activity on PDGFRβ (in words) [4] | IC50 [8] [nM] | IC50 [9] [nM] | IC50 [10] [nM] | IC50 [11] [nM] | inhibition at 0.1 µM [12] [%] | IC50 [13] [nM] | IC50 [14] [nM] | IC50 [15] [nM]
Cc1cnc(Nc2ccc(N3CCC(F)(F)CC3)cc2)nc1Nc1ccc2cn[nH]c2c1 [Compound 6c] | 50.6 | 540 | 72 | 48.5 | 103 nM | 476 | 74.6 | > 1000 |  |  |  |  |  |  |  |  |  |  |  | 
Cc1cnc(Nc2ccc(N3CCS(=O)(=O)CC3)cc2)nc1Nc1ccc2cn[nH]c2c1 [Compound 6d, 4-(4-((4-((1H-indazol-6-yl)amino)-5-methylpyrimidine-2-yl)amino)phenyl)thiomorpholine 1,1-dioxide] |  | 117 | 99 |  | 70.3 nM and 39 nM | 186 |  | 619 | 59.6 | 70.3 | 78.4 |  |  |  |  |  |  |  |  | 
COc1cc(N2CCN(C)CC2)ccc1Nc1ncc(C)c(Nc2ccc3cn[nH]c3c2)n1 [Compound 6e, N^4-(1H-indazol-6-yl)-N^2-(2-methoxy-4-(4-methylpiperazine-1-yl)phenyl)-5-methylpyrimidine-2,4-diamine] |  | > 1000 | 199 |  | 72 nM | 7 |  | > 1000 | 78.8 | 63.4 | 79.5 |  |  |  |  |  |  |  |  | 
COc1cc(Nc2ncc(C)c(Nc3ccc4cn[nH]c4c3)n2)ccc1N1CCN(C)CC1 [Compound 6f, N^4-(1H-indazol-6-yl)-N^2-(3-methoxy-4-(4-methylpiperazine-1-yl)phenyl)-5-methylpyrimidine-2,4-diamine] |  | 61 | 31 |  | 2.6 nM | 11 |  | > 1000 | 98 | 97 | 97.8 | significant inhibitory activities | 841 ± 5 | 1360 ± 19 | 720 ± 25 | 756 ± 1 |  |  |  | 
Cc1cnc(Nc2ccc(N3CCN(C)CC3)cc2)nc1Nc1ccc2cn[nH]c2c1 [Compound 6g, N^4-(1H-indazol-6-yl)-5-methyl-N^2-(4-(4-methylpiperazine-1-yl)phenyl)pyrimidine-2,4-diamine] | 89.6 | 81 | 13 | 93.8 | 8.8 nM | 26 | 87.6 | 595 |  |  |  | significant inhibitory activities |  |  |  |  |  |  |  | 
CCN1CCN(c2ccc(Nc3ncc(C)c(Nc4ccc5cn[nH]c5c4)n3)c(OC)c2)CC1 [Compound 6h, N^2-(4-(4-ethylpiperazine-1-yl)-2-methoxyphenyl)-N^4-(1H-indazol-6-yl)-5-methylpyrimidine-2,4-diamine] |  | > 1000 | 320 |  | 40 nM | 5.8 |  | > 1000 | 87.5 | 80.2 | 82.6 |  |  |  |  |  |  |  |  | 
Cc1cnc(Nc2ccc(N3CCC(N4CCN(C)CC4)CC3)cc2)nc1Nc1ccc2cn[nH]c2c1 [Compound 6j, N^4-(1H-indazol-6-yl)-5-methyl-N^2-(4-(4-(4-methylpiperazine-1-y 1)piperidine-1-yl)phenyl)pyrimidine-2,4-diamine] | 87.6 | 89 | 14 | 85.4 | 12 nM | 23 | 91.0 | > 1000 |  |  |  |  |  |  |  |  |  |  |  | 
Cc1cnc(Nc2ccc(C(=O)NCCN3CCOCC3)cc2)nc1Nc1ccc2cn[nH]c2c1 [Compound 6n] | 81.2 | 102 | 6 | 82.4 | 19 nM | 95 | 82.3 | 181 |  |  |  |  |  |  |  |  |  |  |  | 
Cc1ccc(Nc2nccc(N(C)c3ccc4c(C)n(C)nc4c3)n2)cc1S(N)(=O)=O [Pazopanib, reference compound] |  |  |  |  |  |  |  |  |  | 76.7 | 80.6 |  | > 100000 | 8520 ± 868 | > 100000 | > 100000 | 96.9 |  |  | 
CNC(=O)c1cc(Oc2ccc(NC(=O)Nc3ccc(Cl)c(C(F)(F)F)c3)cc2)ccn1 [Sorafenib, reference compound] |  |  |  |  |  |  |  |  |  |  |  |  |  |  |  |  |  | 23290 ± 143 | 6320 ± 730 | 9920 ± 598
Cc1[nH]c(/C=C2\C(=O)Nc3ccc(F)cc32)c(C)c1C(=O)N[C@H]1CCN(C(=O)N(C)C)C1 [Vorolanib, reference compound] |  |  |  |  |  |  |  |  |  |  |  |  |  |  |  |  |  | 56200 ± 3230 | 34300 ± 885 | 18500 ± 10500

Source: US20230312529A1, “PYRIMIDINE SMALL-MOLECULE COMPOUND AND APPLICATION THEREOF” (WENZHOU MEDICAL UNIVERSITY, priority 2021, published 2023)
